Measured values as given in the supplement of paper PMC10307832.

What was measured:
Experiment in all cases: relative viability (nuclei count vs DMSO), 5 days (fraction); higher = more cells survive
Lapatinib + Luminespib = compound: CS(=O)(=O)CCNCc1ccc(-c2ccc3ncnc(Nc4ccc(OCc5cccc(F)c5)c(Cl)c4)c3c2)o1 [Lapatinib] + CCNC(=O)c1noc(-c2cc(C(C)C)c(O)cc2O)c1-c1ccc(CN2CCOCC2)cc1 [Luminespib] (partner 0.01 µM)
Method in brief: (§1)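 Relative viability is defined as nuclei in treated wells over nuclei in vehicle wells. Duplicate plates were run and medians reported. Lung cancer cell lines in 1536-well plates were dosed by pin tool one day after seeding, with one drug or with a fixed anchor-drug dose plus five library-drug doses (not always all listed) in √10 steps, and nuclei were counted after 5 days.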

Lapatinib + Foretinib = compound: CS(=O)(=O)CCNCc1ccc(-c2ccc3ncnc(Nc4ccc(OCc5cccc(F)c5)c(Cl)c4)c3c2)o1 [Lapatinib] + COc1cc2c(Oc3ccc(NC(=O)C4(C(=O)Nc5ccc(F)cc5)CC4)cc3F)ccnc2cc1OCCCN1CCOCC1 [Foretinib] (partner 0.25 µM)
Method in brief: as §1

Lapatinib + AZD7762 = compound: CS(=O)(=O)CCNCc1ccc(-c2ccc3ncnc(Nc4ccc(OCc5cccc(F)c5)c(Cl)c4)c3c2)o1 [Lapatinib] + NC(=O)Nc1cc(-c2cccc(F)c2)sc1C(=O)N[C@H]1CCCNC1 [AZD7762] (partner 0.2 µM)
Method in brief: as §1

Lapatinib + Decitabine = compound: CS(=O)(=O)CCNCc1ccc(-c2ccc3ncnc(Nc4ccc(OCc5cccc(F)c5)c(Cl)c4)c3c2)o1 [Lapatinib] + Nc1ncn([C@H]2C[C@H](O)[C@@H](CO)O2)c(=O)n1 [Decitabine] (partner 2 µM)
Method in brief: as §1

Cell Line | relative viability (Lapatinib + Luminespib; first compound 0.2 µM) | relative viability (Lapatinib + Luminespib; first compound 0.6325 µM) | relative viability (Lapatinib + Luminespib; first compound 2 µM) | relative viability (Lapatinib + Foretinib; first compound 0.02 µM) | relative viability (Lapatinib + Foretinib; first compound 0.2 µM) | relative viability (Lapatinib + Foretinib; first compound 0.6325 µM) | relative viability (Lapatinib + Foretinib; first compound 2 µM) | relative viability (Lapatinib + AZD7762; first compound 0.02 µM) | relative viability (Lapatinib + AZD7762; first compound 0.2 µM) | relative viability (Lapatinib + AZD7762; first compound 0.6325 µM) | relative viability (Lapatinib + AZD7762; first compound 2 µM) | relative viability (Lapatinib + Decitabine; first compound 0.02 µM) | relative viability (Lapatinib + Decitabine; first compound 0.2 µM) | relative viability (Lapatinib + Decitabine; first compound 0.6325 µM) | relative viability (Lapatinib + Decitabine; first compound 2 µM) | relative viability (Lapatinib + Luminespib; first compound 0.06325 µM) | relative viability (Lapatinib + Foretinib; first compound 0.06325 µM) | relative viability (Lapatinib + AZD7762; first compound 0.06325 µM) | relative viability (Lapatinib + Decitabine; first compound 0.06325 µM) | relative viability (Lapatinib + Luminespib; first compound 0.02 µM)
NCI-H727 | 0.285 | 0.278 | 0.431 | 0.617 | 0.673 | 0.708 | 0.691 | 0.634 | 0.443 | 0.551 | 0.395 | 0.756 | 0.915 | 0.915 | 0.917 | – | – | – | – | –
NCI-H650 | 0.729 | 0.862 | 0.854 | – | 0.989 | 1.06 | 0.979 | – | 1.03 | 1.04 | 0.977 | – | 0.328 | 0.324 | 0.343 | 0.81 | 0.94 | 0.735 | 0.319 | –
A-427 | 0.96 | 0.959 | 1.1 | – | 1.1 | 1.08 | 0.859 | 0.709 | 0.745 | 0.793 | 0.681 | 0.561 | 0.597 | 0.614 | 0.498 | 0.751 | 0.905 | 0.658 | 0.519 | –
NCI-H1993 | 0.737 | 0.749 | 0.476 | 0.691 | 0.75 | 0.71 | 0.762 | 0.615 | 0.86 | 0.499 | 0.455 | 0.68 | 0.555 | 0.64 | 0.462 | – | – | – | – | 0.824
NCI-H441 | 0.278 | 0.282 | 0.322 | – | 1.01 | 0.822 | 1.1 | 1.17 | 1.15 | 0.856 | 1.14 | 0.239 | 0.268 | 0.266 | 0.214 | 0.299 | 0.931 | – | – | –
NCI-H1437 | 1.16 | 1.13 | 1.02 | 1.23 | 1.32 | 1.2 | 1.12 | 1.13 | 1.1 | 1.07 | 1.06 | 0.603 | 0.56 | 0.53 | 0.569 | 1.21 | 1.33 | 1.11 | 0.527 | 0.961
BEN | 0.229 | 0.402 | 0.417 | – | 0.653 | 0.763 | 0.554 | 0.499 | 0.587 | 0.855 | 0.556 | 0.413 | 0.725 | 0.748 | 0.665 | 0.564 | 0.667 | 0.704 | 0.743 | –
LOU-NH91 | 0.364 | 0.346 | 0.362 | 0.902 | 0.689 | 0.604 | 0.498 | 0.76 | 0.696 | 0.703 | 0.599 | 0.789 | 0.65 | 0.663 | 0.652 | 0.305 | 0.815 | 0.58 | 0.709 | 0.368
PC-3 [JPC-3] | 0.648 | 0.722 | 0.477 | 1.04 | 1.03 | 1.09 | 0.471 | – | – | 0.655 | 0.414 | – | – | 0.954 | 0.598 | 0.665 | 0.989 | 0.477 | 0.786 | 0.74
NCI-H1355 | 0.634 | 0.685 | 0.441 | – | 0.94 | 0.93 | 0.657 | 0.674 | 0.72 | 0.753 | 0.549 | 0.352 | 0.333 | 0.307 | 0.353 | 0.646 | 0.795 | 0.627 | 0.33 | –
NCI-H358 | – | 0.255 | 0.173 | 0.613 | 0.422 | 0.317 | 0.17 | 0.459 | 0.379 | 0.388 | 0.282 | 0.205 | 0.206 | 0.162 | 0.152 | 0.159 | 0.33 | 0.364 | 0.181 | –
EKVX | 0.767 | 0.853 | 0.447 | 0.202 | 0.822 | 0.581 | 0.201 | – | 0.693 | 0.708 | 0.663 | – | 0.333 | 0.304 | 0.138 | 0.804 | 0.738 | 0.518 | 0.326 | 0.712
NCI-H2085 | 0.396 | 0.447 | 0.322 | – | 0.899 | 0.862 | 0.535 | 0.881 | 0.929 | 0.797 | 0.526 | 0.579 | 0.512 | 0.521 | 0.477 | 0.402 | 0.737 | 0.886 | 0.528 | –
NCI-H23 | 0.197 | 0.215 | 0.196 | – | 0.908 | 0.958 | 0.898 | – | 0.216 | 0.232 | 0.154 | – | 0.315 | 0.353 | 0.323 | – | – | – | – | –
NCI-H647 | 0.169 | 0.32 | 0.14 | 1.06 | 1.22 | 1.01 | 1.2 | – | 0.43 | 0.583 | 0.401 | 0.416 | 0.431 | 0.377 | 0.383 | 0.309 | 1.16 | 0.573 | 0.284 | 0.119
NCI-H1395 | 0.706 | 0.599 | 0.663 | 1.03 | 1.01 | 0.929 | 0.917 | – | 0.428 | 0.383 | 0.414 | – | 0.802 | 0.729 | 0.701 | 0.761 | 1.04 | 0.364 | 0.719 | 0.849
NCI-H1651 | 0.935 | 0.695 | 0.712 | 0.716 | 0.764 | 0.695 | 0.611 | 0.468 | 0.337 | 0.41 | 0.402 | 0.466 | 0.605 | 0.633 | 0.484 | 0.672 | 0.776 | 0.451 | 0.608 | 0.712
PC-14 | 0.12 | 0.192 | 0.149 | 0.864 | 1.03 | 0.873 | 0.78 | 0.362 | 0.301 | 0.295 | 0.138 | 0.271 | 0.246 | 0.223 | 0.193 | 0.147 | 0.913 | 0.331 | 0.277 | –
